Data reported in the NIST ThermoML archive (doi:10.1021/acs.jced.5b00242).

Experiments:
[1] = refractive index (Na D-line) (dimensionless); xn = mol fraction of the nth substance listed; details: 101 kPa, Liquid, Standard Abbe refractometry
[2] = xn = mol fraction of the nth substance listed; details: 101 kPa, Liquid; for viscosity: Stabinger Viscometer; for mass density: Vibrating tube method

CCn1cc[n+](C)c1.O=C([O-])[C@@H]1CCCN1 [1-ethyl-3-methyl-1H-imidazolium L-prolinate] + CCn1cc[n+](C)c1.N#C[C-](C#N)C#N
Details	mass density, [2] [kg/m3]	refractive index, [1]	viscosity, [2] [mPa·s]
293.15 K, x2 = 0	1145.9	1.52291	1928.4
293.15 K, x2 = 0.2501	1131.7	1.52057	731.38
293.15 K, x2 = 0.5002	1116.4	1.5191	183.74
293.15 K, x2 = 0.7501	1100.6	1.51665	49.1
298.15 K, x2 = 0	1142.8	1.52151	1194.6
298.15 K, x2 = 0.2501	1128.4	1.51913	474.82
298.15 K, x2 = 0.5002	1113.1	1.5176	131.11
298.15 K, x2 = 0.7501	1097.2	1.51508	38.6
303.15 K, x2 = 0	1139.6	1.52009	771.51
303.15 K, x2 = 0.2501	1125.1	1.51769	320.94
303.15 K, x2 = 0.5002	1109.8	1.51611	96.6
303.15 K, x2 = 0.7501	1093.8	1.51349	30.96
308.15 K, x2 = 0	1136.4	1.5187	517.61
308.15 K, x2 = 0.2501	1121.8	1.51622	224.85
308.15 K, x2 = 0.5002	1106.6	1.5146	73.15
308.15 K, x2 = 0.7501	1090.4	1.5119	25.29
313.15 K, x2 = 0	1133.2	1.51731	359.21
313.15 K, x2 = 0.2501	1118.7	1.51477	162.54
313.15 K, x2 = 0.5002	1103.3	1.51306	56.72
313.15 K, x2 = 0.7501	1087	1.51033	21
318.15 K, x2 = 0	1130.1	1.51591	256.92
318.15 K, x2 = 0.2501	1115.5	1.51333	120.81
318.15 K, x2 = 0.5002	1100.1	1.51153	44.93
318.15 K, x2 = 0.7501	1083.7	1.50875	17.68
323.15 K, x2 = 0	1127.1	1.51454	188.66
323.15 K, x2 = 0.2501	1112.4	1.51191	92
323.15 K, x2 = 0.5002	1096.8	1.51006	36.25
323.15 K, x2 = 0.7501	1080.3	1.50717	15.08
328.15 K, x2 = 0	1124	1.51315	141.76
328.15 K, x2 = 0.2501	1109.3	1.51046	71.61
328.15 K, x2 = 0.5002	1093.6	1.50858	29.73
328.15 K, x2 = 0.7501	1077	1.50561	13
333.15 K, x2 = 0	1121	1.51177	108.85
333.15 K, x2 = 0.2501	1106.2	1.50899	56.8
333.15 K, x2 = 0.5002	1090.4	1.5071	24.75
333.15 K, x2 = 0.7501	1073.6	1.504	11.32
338.15 K, x2 = 0	1118	1.51035	85.12
338.15 K, x2 = 0.2501	1103.1	1.50752	45.83
338.15 K, x2 = 0.5002	1087.2	1.50564	20.87
338.15 K, x2 = 0.7501	1070.3	1.50249	9.95
343.15 K, x2 = 0	1115	1.50897	67.69
343.15 K, x2 = 0.2501	1100	1.50611	37.55
343.15 K, x2 = 0.5002	1084	1.50412	17.8
343.15 K, x2 = 0.7501	1067	1.50096	8.82
348.15 K, x2 = 0	1112	1.50757	54.73
348.15 K, x2 = 0.2501	1096.9	1.50461	31.2
348.15 K, x2 = 0.5002	1080.8	1.50269	15.35
348.15 K, x2 = 0.7501	1063.8	1.49941	7.87
353.15 K, x2 = 0	1109.1	1.5062	44.89
353.15 K, x2 = 0.2501	1093.8	1.50319	26.24
353.15 K, x2 = 0.5002	1077.7	1.50126	13.37
353.15 K, x2 = 0.7501	1060.5	1.49791	7.07

CCn1cc[n+](C)c1.C[C@H](N)C(=O)[O-] [1-ethyl-3-methylimidazolium L-alaninate] + CCn1cc[n+](C)c1.N#C[C-](C#N)C#N
Details	mass density, [2] [kg/m3]	refractive index, [1]	viscosity, [2] [mPa·s]
293.15 K, x2 = 0	1126.3	1.51366	382.06
293.15 K, x2 = 0.2506	1113.7	1.51476	146.57
293.15 K, x2 = 0.5	1102.2	1.51409	78.6
293.15 K, x2 = 0.7499	1092.9	1.51367	31.55
298.15 K, x2 = 0	1123	1.51223	263.98
298.15 K, x2 = 0.2506	1110.4	1.5133	107.2
298.15 K, x2 = 0.5	1098.9	1.51258	60.26
298.15 K, x2 = 0.7499	1089.3	1.5121	25.68
303.15 K, x2 = 0	1119.8	1.51081	187.79
303.15 K, x2 = 0.2506	1107.1	1.51184	80.47
303.15 K, x2 = 0.5	1095.6	1.51107	46.89
303.15 K, x2 = 0.7499	1085.9	1.51053	21.18
308.15 K, x2 = 0	1116.6	1.50937	137.47
308.15 K, x2 = 0.2506	1104	1.51038	61.83
308.15 K, x2 = 0.5	1092.3	1.5095	37.29
308.15 K, x2 = 0.7499	1082.6	1.50893	17.74
313.15 K, x2 = 0	1113.5	1.50793	103.54
313.15 K, x2 = 0.2506	1100.8	1.50888	49.16
313.15 K, x2 = 0.5	1089.1	1.50796	30.22
313.15 K, x2 = 0.7499	1079.2	1.50731	14.83
318.15 K, x2 = 0	1110.5	1.50651	79.34
318.15 K, x2 = 0.2506	1097.8	1.50736	38.96
318.15 K, x2 = 0.5	1085.9	1.50643	24.9
318.15 K, x2 = 0.7499	1075.9	1.50568	12.94
323.15 K, x2 = 0	1107.5	1.50505	62.21
323.15 K, x2 = 0.2506	1094.6	1.5059	31.75
323.15 K, x2 = 0.5	1082.7	1.50488	20.83
323.15 K, x2 = 0.7499	1072.7	1.50401	11.23
328.15 K, x2 = 0	1104.4	1.50358	49.69
328.15 K, x2 = 0.2506	1091.5	1.50436	26.27
328.15 K, x2 = 0.5	1079.5	1.50338	17.64
328.15 K, x2 = 0.7499	1069.4	1.50244	9.84
333.15 K, x2 = 0	1101.3	1.50217	40.5
333.15 K, x2 = 0.2506	1088.4	1.50293	22.29
333.15 K, x2 = 0.5	1076.3	1.50191	15.08
333.15 K, x2 = 0.7499	1066.1	1.50085	8.51
338.15 K, x2 = 0	1098.3	1.50074	33.22
338.15 K, x2 = 0.2506	1085.3	1.50148	18.7
338.15 K, x2 = 0.5	1073.1	1.50039	13.09
338.15 K, x2 = 0.7499	1062.9	1.49926	7.74
343.15 K, x2 = 0	1095.2	1.49932	27.72
343.15 K, x2 = 0.2506	1082.2	1.49997	16.04
343.15 K, x2 = 0.5	1069.9	1.49888	11.45
343.15 K, x2 = 0.7499	1059.6	1.49771	6.93
348.15 K, x2 = 0	1092.1	1.49795	23.38
348.15 K, x2 = 0.2506	1079.1	1.49851	13.89
348.15 K, x2 = 0.5	1066.6	1.49739	10.1
348.15 K, x2 = 0.7499	1056.3	1.49613	6.26
353.15 K, x2 = 0	1088.9	1.49656	20.03
353.15 K, x2 = 0.2506	1075.9	1.49704	12.28
353.15 K, x2 = 0.5	1063.1	1.49589	8.93
353.15 K, x2 = 0.7499	1052.9	1.49456	5.45
